22 molecules from patent US20250295798A1, “LIGAND-DRUG CONJUGATE OF EXATECAN ANALOGUE, AND MEDICAL USE THEREOF” (BeiGene Switzerland GmbH, priority 2022, published 2025) can be followed below.

For one experiment, the system named is A375. Put plainly: Compounds cellular killing in A375. Format: cell-based, human. Conditions: for EC50 / Emax / Emax (%): A375, 6 days, Cell Titer-Glo; for potency compared with compound 1-A and 1-C: Table 18, A375 and Calu-6. As for the experimental part:
(§1) Seeding cells A375 (1E3/well) or Calu-6 (2E3/well) into 96-well plate (Greiner: 655090), 100 ul/well. Incubation at 37° C., 5% CO2, overnight.
(§2) Adding the fresh growth-medium containing the varying concentrations of compounds, 50 ul/well.
(§3) Incubation at 37° C., 5% CO2, 6 days.
(§4) The cell viability detected by Cell Titer-Glo (Promega, G7573). Add 70 µL/well of CellTiter-Glo® Reagent in each well.
(§5) Allow the plates to incubate at room temperature for 10 minutes to stabilize luminescent signal.
(§6) Analyze with Microplate Reader.
(§7) Seeding cells A375 ([…] or Calu-6 (2E3/well) into 96-well plate (Greiner: 655090), 100 ul/well. Incubation at 37° C., […], overnight.
For orientation: In ATP-based viability assays light output follows the ATP content of the culture.

The next experiment deals with Calu-6. Put plainly: Compounds cellular killing in Calu-6. Format: cell-based, human. Conditions: Calu-6, 6 days, Cell Titer-Glo. The method, then: as §1, §2, §3, §4, §5, §6, §7

Structures can show the parent of a compound that is named as a salt.

By EC50 is commonly meant the concentration that produces a half-maximal response. Read a low EC50 as an effect from little substance. For orientation: Emax means the greatest response seen or fitted, relative to the assay's reference.

Consider `CC[C@@]1(O)C(=O)OCc2c1cc1n(c2=O)Cc2c-1nc1cc(F)c(C)c3c1c2[C@@H](NC(=O)C1CCCC1O)CC3` (single isomer, unassigned) [Example 2-9], for which the EC50 in the experiment with A375 stood at 1.9 nM; in the experiment on Calu-6, 0.7 nM. The Emax in the experiment with A375 (Homo sapiens, A-375, […]) amounted to 100%; with Calu-6 (Homo sapiens, Calu-6, […]) it was 98.6%.

For `CC[C@@]1(O)C(=O)OCc2c1cc1n(c2=O)Cc2c-1nc1cc(F)c(C)c3c1c2[C@@H](NC(=O)C1CCCC1O)CC3` (single isomer, unassigned) [Example 2-10], in the experiment on A375, the EC50 was 0.8 nM and the “Emax (%)” value is 99.9%. Besides, in the experiment with Calu-6, the EC50 stood at 0.2 nM and the “Emax (%)” value came out at 98.9%.

Regarding `CC[C@@]1(O)C(=O)OCc2c1cc1n(c2=O)Cc2c-1nc1cc(F)c(C)c3c1c2C(OCCO)CC3` (single isomer, unassigned) [Example 2-45], the EC50 turned out to be 1.3 nM with A375 (Homo sapiens, A-375) and 0.7 nM in the experiment with Calu-6 (Homo sapiens). The Emax in the experiment on A375 (Homo sapiens, A-375) was 100%; in the experiment on Calu-6 (Homo sapiens, Calu-6, […]), 99.2%.

With `CC[C@@]1(O)C(=O)OCc2c1cc1n(c2=O)Cc2c-1nc1cc(F)c(C)c3c1c2[C@@H](N1CCCC1CO)CC3` (single isomer, unassigned) [Example 2-49], the EC50 in the experiment with A375 amounted to 0.7 nM; in the experiment with Calu-6 (Homo sapiens, Calu-6, […]), 0.2 nM. Further, the Emax in the experiment with A375 (Homo sapiens, A-375, […]) worked out at 99.9%; in the experiment with Calu-6 (Homo sapiens, Calu-6, […]) it was 99.1%.

On to `CC[C@@]1(O)C(=O)OCc2c1cc1n(c2=O)Cc2c-1nc1cc(F)c(C)c3c1c2[C@@H](N1CCCC1CO)CC3` (single isomer, unassigned) [Example 2-50], for which, in the experiment with A375, the EC50 is 0.3 nM and the “Emax (%)” value was found to be 99.5%. In the experiment on Calu-6, the “Emax (%)” value was determined as 99.2%.

For `CC[C@@]1(O)C(=O)OCc2c1cc1n(c2=O)Cc2c-1nc1cc(F)c(C)c3c1c2C(C(=O)NCCO)CC3` (single isomer, unassigned) [Example 2-52], the EC50 came out at 16.1 nM with A375 (Homo sapiens, A-375, […]) and 6 nM with Calu-6 (Homo sapiens, Calu-6, […]). The Emax in the experiment on A375 (Homo sapiens, A-375, […]) is 98.9%; with Calu-6 (Homo sapiens, Calu-6, […]), 97.3%.

As to `CC[C@@]1(O)C(=O)OCc2c1cc1n(c2=O)Cc2c-1nc1cc(F)c(C)c3c1c2[C@@H](N1CCC1CO)CC3` (single isomer, unassigned) [Example 2-56], the figures for the EC50 with A375 and in the experiment with Calu-6 were 0.9 nM and 0.2 nM, respectively. The figures for the “Emax (%)” value in the experiment on A375 and with Calu-6 were 100.0% and 99.0%, respectively.

With `CC[C@@]1(O)C(=O)OCc2c1cc1n(c2=O)Cc2c-1nc1cc(F)c(C)c3c1c2C(N1CCC1CO)CC3` (single isomer, unassigned) [Example 2-57], the EC50 with A375 was determined as 1.9 nM; in the experiment on Calu-6 it was 0.7 nM. In addition, the Emax in the experiment on A375 (Homo sapiens, A-375, […]) turned out to be 100%; with Calu-6 (Homo sapiens, Calu-6, […]), 99.3%.

`CC[C@@]1(O)C(=O)OCc2c1cc1n(c2=O)Cc2c-1nc1cc3c(c4c1c2C(CCCO)CC4)OCO3` (single isomer, unassigned) [Example 2-59]: the EC50 in the experiment with A375 (Homo sapiens, A-375) came out at 0.8 nM; in the experiment on Calu-6 (Homo sapiens) it was 0.2 nM. Moreover, the Emax in the experiment with A375 (Homo sapiens, A-375) came to 100%; in the experiment on Calu-6 (Homo sapiens, Calu-6, […]) it was 98.4%. The “potency compared with compound 1-A and 1-C” value with A375 is “higher potency than compound 1-A and 1-C”.

Turning to `CC[C@@]1(O)C(=O)OCc2c1cc1n(c2=O)Cc2c-1nc1cc3c(c4c1c2C(CCCO)CC4)OCO3` (single isomer, unassigned) [Example 2-60], in the experiment on A375, it took 0.8 nM to reach a half-maximal effect (EC50); the “Emax (%)” value is on record as 100.0%; the “potency compared with compound 1-A and 1-C” value is “higher potency than compound 1-A and 1-C”. Also, in the experiment on Calu-6, the EC50 came to 0.2 nM and the “Emax (%)” value was 98.2%.

As for `CC[C@@]1(O)C(=O)OCc2c1cc1n(c2=O)Cc2c-1nc1cc(F)c(OC)c3c1c2[C@@H](N)CC3` [Example 1-1, (1S,9S)-1-amino-9-ethyl-5-fluoro-9-hydroxy-4-methoxy-1,2,3,9,12,15-hexahydro-10H,13H-benzo[de]pyrano[3′,4′:6,7]indolizino[1,2-b]quinoline-10,13-dione methanesulfonate], in the experiment on A375 (Homo sapiens, A-375, […]), the EC50 is 2 nM and the Emax was determined as 100%. In the experiment on Calu-6 (Homo sapiens, Calu-6, […]), it took 0.9 nM to reach a half-maximal effect (EC50) and the Emax is 99.6%.

With `CC[C@@]1(O)C(=O)OCc2c1cc1n(c2=O)Cc2c-1nc1cc(F)c(O)c3c1c2[C@@H](N)CC3` [Example 1-3, (1S,9S)-1-amino-9-ethyl-5-fluoro-4,9-dihydroxy-1,2,3,9,12,15-hexahydro-10H,13H-benzo[de]pyrano[3′,4′:6,7]indolizino[1,2-b]quinoline-10,13-dione methanesulfonate], the EC50 in the experiment with A375 (Homo sapiens, A-375, […]) worked out at 130 nM; with Calu-6 (Homo sapiens, Calu-6, […]) it was 38.5 nM. For the same molecule, the Emax amounted to 98.4% in the experiment on A375 (Homo sapiens, A-375, […]) and 98.8% in the experiment on Calu-6 (Homo sapiens, Calu-6, […]).

In the experiment on A375 (Homo sapiens, A-375, […]), `CC[C@@]1(O)C(=O)OCc2c1cc1n(c2=O)Cc2c-1nc1cc(Cl)c(C)c3c1c2[C@@H](N)CC3` [Example 1-8, (1S,9S)-1-amino-5-chloro-9-ethyl-9-hydroxy-4-methyl-1,2,3,9,12,15-hexahydro-10H,13H-benzo[de]pyrano[3′,4′:6,7]indolizino[1,2-b]quinoline-10,13-dione] came in with an EC50 of 1.2 nM and an Emax of 98.8%. In the experiment on Calu-6 (Homo sapiens, Calu-6, […]), this molecule showed an EC50 of 0.5 nM and an Emax of 98.8%.

As to `CC[C@@]1(O)C(=O)OCc2c1cc1n(c2=O)Cc2c-1nc1cc3c(c4c1c2[C@@H](N)CC4)OCO3` [Example 1-10, (1S,10S)-1-amino-10-ethyl-10-hydroxy-1,2,3,10,13,16-hexahydro-11H,14H-benzo[de][1,3]dioxolo[4,5-g]pyrano[3′,4′:6,7]indolizino[1,2-b]quinoline-11,14-dione], the EC50 came out at 0.4 nM with A375 (Homo sapiens, A-375) and 0.3 nM in the experiment with Calu-6 (Homo sapiens). The Emax in the experiment on A375 (Homo sapiens, A-375) was found to be 97.7%; in the experiment with Calu-6 (Homo sapiens, Calu-6, […]), 97.7%.

Regarding `CC[C@@]1(O)C(=O)OCc2c1cc1n(c2=O)Cc2c-1nc1ccc(F)c3c1c2[C@@H](N)CC3` [Example 1-12, (1S,9S)-1-amino-9-ethyl-4-fluoro-9-hydroxy-1,2,3,9,12,15-hexahydro-10H,13H-benzo[de]pyrano[3′,4′:6,7]indolizino[1,2-b]quinoline-10,13-dione], in the experiment with A375 (Homo sapiens, A-375, […]), a half-maximal response (EC50) required 5.5 nM and the Emax was 99.8%. For the same molecule, in the experiment on Calu-6 (Homo sapiens, Calu-6, […]), it took 2.1 nM to reach a half-maximal effect (EC50) and the maximal response (Emax) was 99.5%.

Take `CC[C@@]1(O)C(=O)OCc2c1cc1n(c2=O)Cc2c-1nc1cc(Cl)cc3c1c2[C@@H](N)CC3` [Example 1-14, (1S,9S)-1-amino-5-chloro-9-ethyl-9-hydroxy-1,2,3,9,12,15-hexahydro-10H,13H-benzo[de]pyrano[3′,4′:6,7]indolizino[1,2-b]quinoline-10,13-dione]: the EC50 amounted to 2.5 nM in the experiment with A375 (Homo sapiens, A-375) and 0.8 nM in the experiment on Calu-6 (Homo sapiens). The Emax with A375 (Homo sapiens, A-375) worked out at 100%; with Calu-6 (Homo sapiens, Calu-6, […]) it was 98.8%.

Take `CC[C@@]1(O)C(=O)OCc2c1cc1n(c2=O)Cc2c-1nc1cc3c(c4c1c2[C@@H](N)CC4)OC(F)(F)O3` [Example 1-16, (1S,10S)-1-amino-10-ethyl-5,5-difluoro-10-hydroxy-1,2,3,10,13,16-hexahydro-11H,14H-benzo[de][1,3]dioxolo[4,5-g]pyrano[3′,4′:6,7]indolizino[1,2-b]quinoline-11,14-dione 2,2,2-trifluoroacetate salt]: in the experiment with A375 (Homo sapiens, A-375, […]), a half-maximal effect (EC50) was put at 1.6 nM and the Emax came to 98.5%. In the experiment with Calu-6 (Homo sapiens, Calu-6, […]), this molecule yielded an EC50 of 0.6 nM and an Emax of 98.5%.

On to `CC[C@@]1(O)C(=O)OCc2c1cc1n(c2=O)Cc2c-1nc1cc(O)cc3c1c2C(NC(C)=O)CC3` (stereo partly drawn) [Example 1-18, N-((9S)-9-ethyl-5,9-dihydroxy-10,13-dioxo-2,3,9,10,13,15-hexahydro-1H,12H-benzo[de]pyrano[3′,4′:6,7]indolizino[1,2-b]quinolin-1-yl)acetamide], for which the EC50 came out at 5.3 nM in the experiment with A375 (Homo sapiens, A-375, […]) and 3.1 nM in the experiment on Calu-6 (Homo sapiens, Calu-6, […]). In addition, the Emax with A375 (Homo sapiens, A-375, […]) is 99.9%; with Calu-6 (Homo sapiens, Calu-6, […]) it was 99.5%.

In the experiment with A375 (Homo sapiens, A-375, […]), `CC[C@@]1(O)C(=O)OCc2c1cc1n(c2=O)Cc2c-1nc1cc(F)cc3c1c2[C@@H](N)CC3` [Example 1-22, (1S,9S)-1-amino-9-ethyl-5-fluoro-9-hydroxy-1,2,3,9,12,15-hexahydro-10H,13H-benzo[de]pyrano[3′,4′:6,7]indolizino[1,2-b]quinoline-10,13-dione methanesulfonate] showed an EC50 of 1.4 nM and an Emax of 100%. In the experiment with Calu-6 (Homo sapiens, Calu-6, […]), the EC50 was determined as 0.6 nM and the Emax worked out at 99.2%.

Regarding `CC[C@@]1(O)C(=O)OCc2c1cc1n(c2=O)Cc2c-1nc1cc(O)cc3c1c2[C@@H](N)CC3` [Example 1-24, (1S,9S)-1-amino-9-ethyl-5,9-dihydroxy-1,2,3,9,12,15-hexahydro-10H,13H-benzo[de]pyrano[3′,4′:6,7]indolizino[1,2-b]quinoline-10,13-dione methanesulfonate], the EC50 turned out to be 112 nM with A375 (Homo sapiens, A-375, […]) and 118 nM with Calu-6 (Homo sapiens, Calu-6, […]). For the same molecule, the Emax came out at 96% with A375 (Homo sapiens, A-375, […]) and 94.4% in the experiment on Calu-6 (Homo sapiens, Calu-6, […]).

In the experiment on A375 (Homo sapiens, A-375, […]), `CC[C@@]1(O)C(=O)OCc2c1cc1n(c2=O)Cc2c-1nc1cc(F)c(Cl)c3c1c2[C@@H](N)CC3` [Example 1-26, ((1S,9S)-1-amino-4-chloro-9-ethyl-5-fluoro-9-hydroxy-1,2,3,9,12,15-hexahydro-10H,13H-benzo[de]pyrano[3′,4′:6,7]indolizino[1,2-b]quinoline-10,13-dione 2,2,2-trifluoroacetate salt] showed an EC50 of 1 nM and an Emax of 98.1%. In the experiment with Calu-6 (Homo sapiens, Calu-6, […]), this molecule displayed an EC50 of 0.3 nM and an Emax of 98.1%.

Take `CC[C@@]1(O)C(=O)OCc2c1cc1n(c2=O)Cc2c-1nc1cc(F)c(C)c3c1c2[C@@H](NC(=O)CO)CC3` [Example 1-A, reference compound]: in the experiment on A375 (Homo sapiens, A-375, […]), it took 2.2 nM to reach a half-maximal effect (EC50) and the Emax was 98.9%. Further, in the experiment with Calu-6 (Homo sapiens, Calu-6, […]), the response was half-maximal at 1 nM (EC50) and the Emax was found to be 98.9%.
